Laboratory results as given in ChEMBL document CHEMBL1141327, “Planktocyclin, a cyclooctapeptide protease inhibitor produced by the freshwater cyanobacterium Planktothrix rubescens” (J Nat Prod, 2007).
Peptide text beside a SMILES is read from it.

Key:
Caspase-8 = Caspase-8 (Homo sapiens, UniProt Q14790); test: Inhibition of human recombinant caspase 8 expressed in Escherichia coli
[1] = Inhibition of bovine alpha chymotrypsin; set-up: species or system Bos taurus
Cathepsin B = Cathepsin B (Bos taurus, UniProt P07688); test: Inhibition of bovine Cathepsin B
[2] = Inhibition of porcine trypsin; set-up: species or system Sus scrofa

Chain of Caspase-8 (Q14790 217-374 limits assumed): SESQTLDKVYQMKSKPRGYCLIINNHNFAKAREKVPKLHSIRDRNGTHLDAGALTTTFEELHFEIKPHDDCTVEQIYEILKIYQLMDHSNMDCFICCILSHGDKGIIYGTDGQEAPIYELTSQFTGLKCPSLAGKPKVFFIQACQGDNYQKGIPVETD
Chain of Caspase-8 (Q14790 385-479 limits assumed): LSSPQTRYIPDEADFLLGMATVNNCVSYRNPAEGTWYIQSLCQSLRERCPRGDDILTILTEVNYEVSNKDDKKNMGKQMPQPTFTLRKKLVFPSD

IC50 (Caspase-8): 93 µM
IC50 [1]: 10 µM
IC50 (Cathepsin B): > 500 µM
IC50 [2]: 0.104 µM
Compound: CSCC[C@@H]1NC(=O)[C@H](C(C)C)NC(=O)[C@H](CC(C)C)NC(=O)CNC(=O)[C@@H]2CCCN2C(=O)[C@H](C(C)C)NC(=O)CNC(=O)[C@H](Cc2ccccc2)NC1=O [PLANKTOCYCLIN] (cyclo(FGVPGLVM))
